Measurements from patent publication US20180099931A1 (AbbVie S.à.r.l., priority 2016, published 2018).
Read-outs that look alike come from different tables or passages of the source.

Biological target: T1, F508delCFTR (Homo sapiens, UniProt P13569, DEL508-508)
T1 construct: expressed in transfected cells; host or cells: CFBE41o- human lung-derived epithelial cells (CFBE4lo-F508delCFTR-HRP), doxycycline-inducible
Test: Cell Surface Expression-Horse Radish Peroxidase (CSE-HRP) Assay;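 on Maximum % activity (with co-corrector): co-corrector and positive control are both the same reference corrector at 2 µM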;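 on Maximum % activity (without co-corrector): percent of the 2 µM on-plate positive control corrector response above DMSO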
Assay type: cell-based
Details: for Maximum % activity (with co-corrector) / Emax: maximum at any tested concentration, normalized to on-plate positive control; for Emax: read-out: Maximum % activity (without co-corrector)

[1] = CSE-HRP, test compound without co-corrector, read-out: EC50 (without co-corrector)
[2] = CSE-HRP, with co-corrector (2 μM of 3-[(2R,4R)-4-({[1-(2,2-difluoro-1,3-benzodioxol-5-yl)cyclopropyl]carbonyl}amino)-7-methoxy-3,4-dihydro-2H-chromen-2-yl]benzoic acid), read-out: EC50 (with co-corrector)
[3] = CSE-HRP, with co-corrector (2 μM)
[4] = test compound without co-corrector
[5] = test compound without co-corrector, read-out: EC50 (without co-corrector)
[6] = with co-corrector (2 μM of 3-[(2R,4R)-4-({[1-(2,2-difluoro-1,3-benzodioxol-5-yl)cyclopropyl]carbonyl}amino)-7-methoxy-3,4-dihydro-2H-chromen-2-yl]benzoic acid), read-out: EC50 (with co-corrector)
[7] = with co-corrector (2 μM of 3-[(2R,4R)-4-({[1-(2,2-difluoro-1,3-benzodioxol-5-yl)cyclopropyl]carbonyl}amino)-7-methoxy-3,4-dihydro-2H-chromen-2-yl]benzoic acid)

T1 sequence (P13569 with tags, fused parts or gaps DEL508-508): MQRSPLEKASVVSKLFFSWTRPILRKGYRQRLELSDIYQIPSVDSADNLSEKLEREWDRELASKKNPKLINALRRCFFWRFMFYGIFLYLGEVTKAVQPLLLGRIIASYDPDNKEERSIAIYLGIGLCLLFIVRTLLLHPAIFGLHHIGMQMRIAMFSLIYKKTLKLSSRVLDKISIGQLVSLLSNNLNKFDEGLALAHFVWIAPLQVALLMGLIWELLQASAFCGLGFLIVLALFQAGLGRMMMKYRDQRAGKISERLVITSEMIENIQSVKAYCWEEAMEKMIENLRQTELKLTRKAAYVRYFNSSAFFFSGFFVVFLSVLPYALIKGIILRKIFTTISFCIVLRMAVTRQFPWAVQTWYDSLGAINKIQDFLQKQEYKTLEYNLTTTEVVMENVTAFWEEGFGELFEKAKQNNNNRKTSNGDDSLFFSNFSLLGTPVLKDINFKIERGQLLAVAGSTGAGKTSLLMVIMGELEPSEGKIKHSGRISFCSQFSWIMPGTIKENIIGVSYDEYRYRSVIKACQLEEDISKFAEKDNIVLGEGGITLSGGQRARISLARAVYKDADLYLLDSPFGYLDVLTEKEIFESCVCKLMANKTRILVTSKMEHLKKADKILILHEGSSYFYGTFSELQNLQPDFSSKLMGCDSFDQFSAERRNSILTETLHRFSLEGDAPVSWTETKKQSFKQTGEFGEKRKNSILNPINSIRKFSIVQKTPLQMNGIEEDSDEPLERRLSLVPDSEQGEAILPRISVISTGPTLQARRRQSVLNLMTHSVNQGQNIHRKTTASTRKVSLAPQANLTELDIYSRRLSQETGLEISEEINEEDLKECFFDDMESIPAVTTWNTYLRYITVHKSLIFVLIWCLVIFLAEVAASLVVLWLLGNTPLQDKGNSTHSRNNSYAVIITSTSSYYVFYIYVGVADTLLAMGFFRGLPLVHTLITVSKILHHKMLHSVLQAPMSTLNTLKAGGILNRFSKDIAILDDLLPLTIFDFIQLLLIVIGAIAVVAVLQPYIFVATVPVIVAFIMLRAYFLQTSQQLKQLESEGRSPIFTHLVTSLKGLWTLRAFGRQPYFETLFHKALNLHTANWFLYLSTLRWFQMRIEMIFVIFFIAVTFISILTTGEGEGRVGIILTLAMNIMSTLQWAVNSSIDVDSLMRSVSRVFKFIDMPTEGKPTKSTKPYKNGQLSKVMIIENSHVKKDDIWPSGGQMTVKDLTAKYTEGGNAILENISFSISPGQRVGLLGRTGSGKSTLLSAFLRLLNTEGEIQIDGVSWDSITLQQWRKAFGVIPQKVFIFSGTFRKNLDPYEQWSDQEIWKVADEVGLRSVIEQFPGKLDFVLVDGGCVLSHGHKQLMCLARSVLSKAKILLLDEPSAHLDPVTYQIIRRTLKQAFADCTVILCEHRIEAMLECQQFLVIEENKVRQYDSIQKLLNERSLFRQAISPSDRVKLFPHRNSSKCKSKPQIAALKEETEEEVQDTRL

Row | SMILES | EC50 [1] | EC50 [2] | Maximum % activity (with co-corrector) [3] | Emax (CSE-HRP, without co-corrector) | Emax [4] | EC50 [5] | EC50 [6] | Maximum % activity (with co-corrector) (with co-corrector (2 μM)) | Emax (without co-corrector) | Maximum % activity (with co-corrector) [7]
1 | COc1ccc(C(C)(C)C)cc1CN[C@H]1[C@H](C(C)(C)C)[C@@H](C(=O)O)N(C(=O)Cc2cc(C)sc2C)[C@H]1c1ccccc1 [II-208] | 1000 to 10000 nM | < 1000 nM | +++ (≥350) | > 200% |  |  |  |  |  | 
2 | COc1nc(C(C)(C)C)ccc1CN[C@H]1[C@H](C(C)(C)C)[C@@H](C(=O)O)N(C(=O)Cc2ccccc2C)[C@H]1c1ccccc1C(C)C [II-427] |  |  |  |  | > 200% | < 1000 nM | < 1000 nM |  |  | +++ (≥350)
3 | COc1ccc(C(C)(C)C)cc1CN[C@H]1[C@H](C(C)(C)C)[C@@H](C(=O)O)N(C(=O)OC(C)C)[C@H]1c1ccccc1F [Example I-221] |  |  |  |  |  | 1000 to 10000 nM | 1000 to 10000 nM | +++ (≥350) | > 200% | 
4 | COc1cc(C(F)(F)F)ccc1CN[C@H]1[C@H](C2(C)CC2)[C@@H](C(=O)O)N(C(=O)C2CCCCC2)[C@H]1c1ccccc1 [II-303] | 1000 to 10000 nM | 1000 to 10000 nM | +++ (≥350) | < 100% |  |  |  |  |  | 
5 | COc1ncc(C(F)(F)F)cc1CN[C@H]1[C@H](C(C)(C)C)[C@@H](C(=O)O)N(C(=O)[C@@H]2CCC[C@@H](OC)C2)[C@H]1c1ccccc1 [Example I-79] |  |  |  |  |  | 1000 to 10000 nM | 1000 to 10000 nM | +++ (≥350) | > 200% | 
6 | Cc1cc(C(F)(F)F)cc(N[C@@H]2[C@@H](C(C)(C)C)[C@H](C(=O)NS(=O)(=O)N(C)C)N(C(=O)C3CCCCC3)[C@@H]2c2ccccc2)n1 (racemic) [III-54] |  |  |  |  | < 100% | 1000 to 10000 nM | 1000 to 10000 nM |  |  | ++ (≥150 and <350)
7 | COc1cc(Cl)ccc1CN[C@@H]1[C@@H](C(C)(C)C)[C@H](C(=O)O)N(C(=O)OC(C)C)[C@@H]1c1cccnc1N(C)C (racemic) [II-29] | 1000 to 10000 nM | 1000 to 10000 nM | +++ (≥350) | > 200% |  |  |  |  |  | 
8 | COc1ncc(C(F)(F)F)cc1CN[C@H]1[C@H](C(C)(C)C)[C@@H](C(=O)O)N(C(=O)[C@@H]2OCC[C@@H]2Cn2cccn2)[C@H]1c1ccccc1 [III-200] |  |  |  |  | < 100% | > 10000 nM | 1000 to 10000 nM | ++ (≥150 and <350) |  | 
9 | COc1ncc(N2CCCC2)cc1CN[C@H]1[C@H](C(C)(C)C)[C@@H](C(=O)O)N(C(=O)C2CCCCC2)[C@H]1c1ccccc1 [II-246] | 1000 to 10000 nM | 1000 to 10000 nM | +++ (≥350) | 100 to 200% |  |  |  |  |  | 
10 | COc1ccc(-c2ccccc2)nc1CN[C@H]1[C@H](C(C)(C)C)[C@@H](C(=O)O)N(C(=O)C2CCCCC2)[C@H]1c1ccccc1 [II-296] | 1000 to 10000 nM | 1000 to 10000 nM | +++ (≥350) | 100 to 200% |  |  |  |  |  | 
11 | COc1cc2c(cc1CN[C@H]1[C@H](C(C)(C)C)[C@@H](C(=O)O)N(C(=O)OC(C)C)[C@H]1c1cccnc1N(C)C)CCCC2 [II-565] |  |  |  |  | 100 to 200% | 1000 to 10000 nM | 1000 to 10000 nM |  |  | +++ (≥350)
12 | COc1ccc(C(C)(C)C)cc1CN[C@H]1[C@H](C(C)(C)C)[C@@H](C(=O)O)N(C(=O)C2(C)CCc3c(Cl)cccc32)[C@H]1c1ccccc1 (stereo partly shown) [II-367] |  |  |  |  | 100 to 200% | 1000 to 10000 nM | 1000 to 10000 nM |  |  | +++ (≥350)
13 | COc1ccc(C(C)(C)C)cc1CN[C@H]1[C@H](C(C)(C)C)[C@@H](C(=O)O)N(C(=O)c2cc(-c3ccccc3)n(C)n2)[C@H]1c1ccccc1 [II-227] | 1000 to 10000 nM | < 1000 nM | +++ (≥350) | > 200% |  |  |  |  |  | 
14 | COc1ccc(C(C)(C)C)cc1CN[C@H]1[C@H](C(C)(C)C)[C@@H](C(=O)O)N(C(=O)OC(C)C)[C@H]1c1cccnc1OC [II-511] |  |  |  |  | 100 to 200% | 1000 to 10000 nM | 1000 to 10000 nM |  |  | +++ (≥350)
15 | CC(C)c1ccccc1[C@H]1[C@@H](NCc2cc(C(C)(C)C)ccc2O)[C@H](C(C)(C)C)[C@@H](C(=O)O)N1C(=O)[C@@H]1CCCO1 [Example I-285] | > 10000 nM | < 1000 nM | + (<150) | < 100% |  |  |  |  |  | 
16 | COc1ccc(C(C)(C)C)cc1CN[C@H]1[C@H](C(C)(C)C)[C@@H](C(=O)O)N(C(=O)Cc2ccc(O)cc2)[C@H]1c1ccccc1 [II-195] | 1000 to 10000 nM | 1000 to 10000 nM | +++ (≥350) | > 200% |  |  |  |  |  | 
17 | COc1ccc(C(C)(C)C)cc1CN[C@H]1[C@H](C(C)(C)C)[C@@H](C(=O)O)N(C(=O)c2ccc(Oc3ccccn3)cc2)[C@H]1c1cccnc1N(C)C [II-466] |  |  |  |  | > 200% | < 1000 nM | < 1000 nM |  |  | +++ (≥350)
18 | COc1ccc(CC2CCCCC2)cc1CN[C@H]1[C@H](C(C)(C)OC)[C@@H](C(=O)O)N(C(=O)C2CCCCC2)[C@H]1c1ccccc1 [Example I-118] |  |  |  |  |  | < 1000 nM | < 1000 nM | +++ (≥350) | > 200% | 
19 | COc1ncc(C2CCC2)cc1CN[C@H]1[C@H](C(C)(C)C)[C@@H](C(=O)O)N(C(=O)c2ccc3c(c2)OCCO3)[C@H]1c1ccccc1 [II-475] |  |  |  |  | < 100% | 1000 to 10000 nM | 1000 to 10000 nM |  |  | ++ (≥150 and <350)
20 | COc1ncc(-c2ccc(F)cc2F)cc1CN[C@H]1[C@H](C(C)(C)C)[C@@H](C(=O)O)N(C(=O)C2CCCCC2)[C@H]1c1cccnc1N(C)C [II-406] |  |  |  |  | 100 to 200% | < 1000 nM | < 1000 nM |  |  | +++ (≥350)
21 | COc1ncc(C2CCC2)cc1CN[C@H]1[C@H](C(C)(C)C)[C@@H](C(=O)O)N(C(=O)OC(C)C)[C@H]1c1cccnc1OC(C)C [Example 87, (2S,3S,4S,5S)-3-tert-butyl-4-{[(5-cyclobutyl-2-methoxypyridin-3-yl)methyl]amino}-1-{[(propan-2-yl)oxy]carbonyl}-5-{2-[(propan-2-yl)oxy]pyridin-3-yl}pyrrolidine-2-carboxylic acid] |  |  |  |  |  | 1000 to 10000 nM | 1000 to 10000 nM | +++ (≥350) | > 200% | 

Results, then the compound that gave them:

Row | EC50 [1] | EC50 [2] | Maximum % activity (with co-corrector) [3] | Emax (CSE-HRP, without co-corrector) | Emax [4] | EC50 [5] | EC50 [6] | Maximum % activity (with co-corrector) (with co-corrector (2 μM)) | Emax (without co-corrector) | Maximum % activity (with co-corrector) [7] | SMILES
22 |  |  |  |  | < 100% | > 10000 nM | 1000 to 10000 nM | ++ (≥150 and <350) |  |  | CC(C)(C)[C@H]1[C@H](NCc2ccc(C(F)(F)F)cc2F)[C@H](c2ccccc2)N(C(=O)C2CCCCC2)[C@@H]1C(=O)O [III-136]
23 |  |  |  |  |  | 1000 to 10000 nM | 1000 to 10000 nM | +++ (≥350) | > 200% |  | COc1ccc(C(C)(C)C)cc1CN[C@H]1[C@H](C(C)(C)C)[C@@H](C(=O)O)N(C(=O)CC2(O)CCC2)[C@H]1c1ccccc1 [Example I-148]
24 | 1000 to 10000 nM | < 1000 nM | +++ (≥350) | 100 to 200% |  |  |  |  |  |  | COc1cc(C(C)(C)C)ccc1CN[C@H]1[C@H](C(C)(C)C)[C@@H](C(=O)O)N(C(=O)C2CCCCC2)[C@H]1c1ccccc1OC [II-141]
25 | < 1000 nM | 1000 to 10000 nM | +++ (≥350) | < 100% |  |  |  |  |  |  | COc1cc(CN[C@H]2[C@H](C(C)(C)C)[C@@H](C(=O)O)N(C(=O)C3CCCCC3)[C@H]2c2ccccc2)c(Br)cc1F [II-114]
26 |  |  |  |  |  | 1000 to 10000 nM | 1000 to 10000 nM | +++ (≥350) | > 200% |  | COc1ccc(C(C)(C)C)cc1CN[C@H]1[C@H](C(C)(C)C)[C@@H](C(=O)O)N(C(=O)C2CCCCO2)[C@H]1c1ccccc1 (relative stereo) [Example I-193]
27 | 1000 to 10000 nM | 1000 to 10000 nM | +++ (≥350) | > 200% |  |  |  |  |  |  | COc1ccc(C(F)(F)F)cc1CN[C@@H]1[C@@H](C(C)(C)C)[C@H](C(=O)O)N(C(=O)[C@@H]2CCCO[C@@H]2C)[C@@H]1c1ccccc1 (racemic) [II-34]
28 | < 1000 nM | 1000 to 10000 nM | +++ (≥350) | < 100% |  |  |  |  |  |  | CC(C)(C)[C@H]1[C@H](NCc2ccc(Cl)cc2Cl)[C@H](c2ccccc2)N(C(=O)C2CCCCC2)[C@@H]1C(=O)O [II-113]
29 | 1000 to 10000 nM | 1000 to 10000 nM | +++ (≥350) | 100 to 200% |  |  |  |  |  |  | COc1ccc(C(C)(C)C)cc1CN[C@H]1[C@H](C(C)(C)C)[C@@H](C(=O)O)N(C(=O)CC2CCC(C)(C)OC2)[C@H]1c1ccccc1 (stereo partly shown) [II-176]
30 |  |  |  |  | < 100% | 1000 to 10000 nM | 1000 to 10000 nM |  |  | ++ (≥150 and <350) | COc1ccc(C(C)(C)C)cc1CN[C@@H]1[C@@H](C(C)(C)C)[C@@H](C(=O)O)N(C(=O)C2CCCCC2)[C@H]1c1ccccc1 [II-412]
31 |  |  |  |  | > 200% | 1000 to 10000 nM | < 1000 nM |  |  | +++ (≥350) | COc1ccc(C(C)(C)C)cc1CN[C@H]1[C@H](C(C)(C)C)[C@@H](C(=O)O)N(C(=O)[C@@H]2[C@@H](C(F)(F)F)[C@@H]3CC[C@H]2O3)[C@H]1c1ccccc1 (relative stereo) [II-505]
